assay: pKa of the acidic agrochemically active ingredient; assay type: physicochemical; details: not given
Description: In the case of using the above-described acidic agrochemically active ingredient having the prescribed pKa, the pKa of the ingredient can be measured by, for example, a method described in “Jikken Kagaku Koza 5, (Thermal measurement and Equilibrium)”, Maruzene, p. 469-474, Jan. 20 (1958) and the like.

Structure (SMILES)	pKa
CNC(=O)Oc1ccccc1OC(C)C [PHC]	11.5
COCc1cccc(C(O)c2nc(OC)cc(OC)n2)c1NS(=O)(=O)C(F)F (stereo not drawn) [Compound A, 2-[(4,6-dimethoxypyrimidin-2-yl)hydroxymethyl]-6-methoxymethyl-N-difuloromethanesulfonylanilide]	5.75
COC(=O)c1ccccc1CS(=O)(=O)NC(=O)Nc1nc(OC)cc(OC)n1 [bensulfuron-methyl, methyl α-(4,6-dimethoxypyrimidin-2-ylcarbamoylsulfamoyl)-o-toluate]	5.03
CCOP(=O)(Sc1ccccc1)Sc1ccccc1 [EDDP]	10.5
Cc1cccc2sc3nncn3c12 [tricyclazole, 5-methyl-1,2,4-triazolo[3,4-b]benzothiazole]	1.6
CCc1cccc(C(O)c2nc(OC)cc(OC)n2)c1NS(=O)(=O)C(F)F (stereo not drawn) [Compound B, 2-[(4,6-dimethoxypyrimidin-2-yl)hydroxymethyl]-6-ethyl-N-difuloromethanesulfonylanilide]	6.17

same assay, conditions: read-out: pKa

Structure (SMILES)	pKa
COc1cc(OC)nc(NC(=O)NS(=O)(=O)c2c(-c3nnn(C)n3)cnn2C)n1 [azimsulfuron, 1-(4,6-dimethoxypyrimidin-2-yl)-3-[1-methyl-4-(2-methyl-2H-tetrazol-5-yl)pyrazol-5-ylsulfonyl]urea]	3.6
COc1cc(OC)nc(NC(=O)NS(=O)(=O)c2c(Cl)nc3ccccn23)n1 [imazosulfuron, 1-(2-chloroimidazo[1,2-a]pyridin-3-ylsulfonyl)-3-(4,6-dimethoxypyrimidin-2-yl)urea]	4
CCOC(=O)c1cnn(C)c1S(=O)(=O)NC(=O)Nc1nc(OC)cc(OC)n1 [pyrazosulfuron-ethyl, ethyl 5-(4,6-dimethoxypyrimidin-2-ylcarbamoylsulfamoyl)-1-methylpyrazole-4-carboxylate]	3.91

Source: patent US7638506B2, “Granular agrochemical composition” (Kumiai Chemical Industry Co., Ltd., priority 2002, dated 2009)
